Measured values taken from patent US20090023697A1, “ANALGESIA METHOD” (Vernalis (R&D) Limited, priority 2003, published 2009).

Key:
male Wistar rats [1] = assay: Rotarod running test to assess sedation after neurosteroid sustained release emulsions; conditions: sc sustained release emulsion; for sedation (rotarod run time) at 1 hour after injection: normal run time 120 s
[2] = given ip or intragastrically; cited from earlier work
[3] = in vivo; cited from earlier work
rats [4] = assay: Tail flick latency (TFL) response to ip morphine: effect of alphadolone on established morphine tolerance
Source text: An observer unaware of the nature of this treatment, saline or alphadolone, made the TFL measurements.
The TFL responses on day 1 and day 3 were combined for drug treatment and expressed as means SEM. These values were compared to see if tolerance occurred and whether co administration of alphadolone caused reversal of the tolerance effect.

male Wistar rats [5] = assay: Tail flick latency (TFL) response to ip morphine: effect of sustained release neurosteroid on development of morphine tolerance
[6] = alphadolone alone; cited from earlier work
rats [7] = assay: Electrical current threshold (ECT) test of nociceptive threshold in the tail after alphadolone sustained release emulsion; conditions: 250 mg/kg alphadolone acetate sc in slow release emulsion
[8] = dose of alphadolone used for tolerance reversal (10 mg/kg); cited from earlier work
mice = conditions: cited from earlier work
[9] = alphadolone 250 mg/kg, alphaxalone 80 mg/kg

## CC(=O)[C@H]1CC[C@H]2[C@@H]3CC[C@H]4C[C@H](O)CC[C@]4(C)[C@H]3C(=O)C[C@]12C [alphaxalone]
Male Wistar rats [1]; [9]
  sedation (rotarod run time) at 1 hour after injection: significantly greater than that caused by alphadolone
Male Wistar rats [1]; alphaxalone 80 mg/kg
  duration of significant sedative effects (rotarod): four
[2]
  antinociception: no antinociception
  sedation: causes sedation
[3]
  potency as an anaesthetic compared with alphadolone: three

## CC(=O)OCC(=O)[C@H]1CC[C@H]2[C@@H]3CC[C@H]4C[C@H](O)CC[C@]4(C)[C@H]3C(=O)C[C@]12C [alphadolone, 21-acetoxy-3alpha-hydroxy-5alpha-pregnane-11, 20-dione]
Rats [4]; 6.4 mg/kg morphine ip plus alphadolone 10 mg/kg after two days morphine emulsion, mean SEM, n=9
  TFL response, day 3 (post tolerance), morphine co administered with alphadolone: 78.6 9.8 % MPE
Rats [4]; morphine 6.4 mg/kg ip co administered with alphadolone 10 mg/kg, p>0.05 one way ANOVA
  day 3 response compared with day 1 response before tolerance: equal to that produced on day 1
Male Wistar rats [5]; sc emulsions with morphine emulsion, alphadolone 250 mg/kg/day, alphaxalone 80 mg/kg/day
  sedation observed during the course of the tolerance experiment: no overt signs of sedation
Male Wistar rats [5]; two days sc morphine emulsion plus sc emulsion of alphadolone 250 mg/kg/day or alphaxalone 80 mg/kg/day, Students t test
  post treatment TFL values (6.4 mg/kg ip morphine, day 3) compared with vehicle treated controls: statistically significant difference
[6]
  antinociceptive effects in the TFL test: no antinociceptive effects
Male Wistar rats [1]; alphadolone 250 mg/kg
  sedation (rotarod run time) later than 1 hour after injection: no sedation
Male Wistar rats [1]; [9]
  sedation (rotarod run time) at 1 hour after injection: small but significant amount of sedation
[2]
  antinociception: causes antinociceptive effects
  sedation: without sedation
Rats [7]
  loss of consciousness / looking sedated after the injection: did not cause any rat to lose consciousness or in any way to look sedated
Rats [7]; n=10
  time by which nociceptive threshold (ECT) was significantly increased: one
Rats [7]; n=10, readings up to 44 hours
  time nociceptive threshold (ECT) remained elevated: 24 h
[8]
  potentiation of morphine TFL effects: potentiate morphine TFL effects

## CC(=O)[C@H]1CC[C@H]2[C@@H]3CCC4=CC(=O)CC[C@]4(C)[C@H]3CC[C@]12C [progesterone]
mice
  prevention of morphine tolerance: positive results

## CC(=O)C1CCC2C3CC=C4CC(OS(=O)(=O)O)CCC4(C)C3CCC12C (centres unmarked) [pregnenolone sulphate]
mice
  prevention of morphine tolerance: positive results

## dehydroepiandrosterone sulphate
mice
  prevention of morphine tolerance: positive results

## CN1CC[C@]23c4c5ccc(O)c4O[C@H]2[C@@H](O)C=C[C@H]3[C@H]1C5 [morphine]
Rats [4]; immediate release morphine 6.4 mg/kg ip, both groups, n=9
  tail flick latency response, day 1 (pre tolerance): approximately 80 % MPE

## CC(=O)[C@H]1CC[C@H]2[C@@H]3CC[C@H]4C[C@H](O)CC[C@]4(C)[C@H]3CC[C@]12C [allopregnanolone]
mice
  prevention of morphine tolerance: positive results
